Laboratory results published in PMC12090182, “Repurposing of the RIPK1-Selective Benzo[1,4]oxazepin-4-one Scaffold for the Development of a Type III LIMK1/2 Inhibitor” (ACS Chemical Biology, 2025).
Like-named read-outs stand apart in the source and are kept apart here.

Tested on: HEK293T cells
Type: cell-based
Summary of the method: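 HEK293T and U2OS cells (DMEM) and MRC-9 fibroblasts (EMEM) exposed to compounds at 1 and 10 μM. Live-cell confocal imaging of cell shape and fluorescence before and at 12, 24 and 48 h. Normalized to 0.1% DMSO; biological duplicates with SEM.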

[1] = 1 µM, 0 h, HEK293T, replicate 2
[2] = 1 µM, 12 h, HEK293T, replicate 2
[3] = 1 µM, 24 h, HEK293T, replicate 2
[4] = 1 µM, 48 h, HEK293T, replicate 1
[5] = 1 µM, 48 h, HEK293T, replicate 2
[6] = 10 µM, 0 h, HEK293T, replicate 2
[7] = 10 µM, 12 h, HEK293T, replicate 2
[8] = 10 µM, 24 h, HEK293T, replicate 2
[9] = 10 µM, 48 h, HEK293T, replicate 2
[10] = HEK293T, 1 µM, 0 h after treatment
[11] = HEK293T, 1 µM, 12 h after treatment
[12] = HEK293T, 1 µM, 24 h after treatment
[13] = HEK293T, 10 µM, 0 h after treatment
[14] = HEK293T, 10 µM, 12 h after treatment
[15] = HEK293T, 10 µM, 24 h after treatment
[16] = HEK293T, 10 µM, 48 h after treatment

Structure (SMILES): CN1C(=O)[C@@H](N2CCc3c(nn(Cc4ccccc4)c3C(N)=O)C2=O)COc2cc(Cl)ccc21 [Compound 10, (S)-2-benzyl-6-(8-chloro-5-methyl-4-oxo-2,3,4,5-tetrahydrobenzo[b][1,4]oxazepin-3-yl)-7-oxo-4,5,6,7-tetrahydro-2H-pyrazolo[3,4-c]pyridine-3-carboxamide]
- Cell count normalized to cells treated with DMSO control [1]: 0.9791
- Cell count per well [1]: 224
- Population Fragmented Nuclei (%) [1]: 4.50%
- Population Healthy Nuclei (%) [1]: 67.00%
- Population Pyknosed Nuclei (%) [1]: 28.50%
- Population apoptotic cell (%) [1]: 66.67%
- Population cell that influence microtubule strucutre (%) [1]: 23.88%
- Population with increased mitochondrial mass (%) [1]: 83.58%
- Population with membrane disruption (%) [1]: 0.00%
- Cell count normalized to cells treated with DMSO control [2]: 1.07
- Cell count per well [2]: 375
- Population Fragmented Nuclei (%) [2]: 6.44%
- Population Healthy Nuclei (%) [2]: 80.67%
- Population Pyknosed Nuclei (%) [2]: 12.89%
- Population apoptotic cell (%) [2]: 23.91%
- Population cell that influence microtubule strucutre (%) [2]: 20.49%
- Population with increased mitochondrial mass (%) [2]: 45.83%
- Population with membrane disruption (%) [2]: 0.69%
- Cell count normalized to cells treated with DMSO control [3]: 1.152
- Cell count per well [3]: 520
- Population Fragmented Nuclei (%) [3]: 9.33%
- Population Healthy Nuclei (%) [3]: 82.94%
- Population Pyknosed Nuclei (%) [3]: 7.74%
- Population apoptotic cell (%) [3]: 43.59%
- Population cell that influence microtubule strucutre (%) [3]: 13.64%
- Population with increased mitochondrial mass (%) [3]: 27.75%
- Population with membrane disruption (%) [3]: 0.24%
- Cell count normalized to cells treated with DMSO control [4]: 1.025
- Cell count per well [4]: 1037
- Population Fragmented Nuclei (%) [4]: 16.00%
- Population Healthy Nuclei (%) [4]: 79.80%
- Population Pyknosed Nuclei (%) [4]: 4.20%
- Population apoptotic cell (%) [4]: 6.98%
- Population cell that influence microtubule strucutre (%) [4]: 10.88%
- Population with increased mitochondrial mass (%) [4]: 12.47%
- Population with membrane disruption (%) [4]: 2.32%
- Cell count normalized to cells treated with DMSO control [5]: 1.189
- Cell count per well [5]: 812
- Population Fragmented Nuclei (%) [5]: 18.11%
- Population Healthy Nuclei (%) [5]: 75.56%
- Population Pyknosed Nuclei (%) [5]: 6.33%
- Population apoptotic cell (%) [5]: 17.65%
- Population cell that influence microtubule strucutre (%) [5]: 11.82%
- Population with increased mitochondrial mass (%) [5]: 11.00%
- Population with membrane disruption (%) [5]: 1.97%
- cytotoxicity (1 μM, HEK293T): no cytotoxicity
- Cell count normalized to cells treated with DMSO control [6]: 0.8086
- Cell count per well [6]: 185
- Population Fragmented Nuclei (%) [6]: 2.99%
- Population Healthy Nuclei (%) [6]: 66.47%
- Population Pyknosed Nuclei (%) [6]: 30.54%
- Population apoptotic cell (%) [6]: 64.71%
- Population cell that influence microtubule strucutre (%) [6]: 27.03%
- Population with increased mitochondrial mass (%) [6]: 85.59%
- Population with membrane disruption (%) [6]: 0.00%
- Cell count normalized to cells treated with DMSO control [7]: 0.8449
- Cell count per well [7]: 296
- Population Fragmented Nuclei (%) [7]: 7.69%
- Population Healthy Nuclei (%) [7]: 76.54%
- Population Pyknosed Nuclei (%) [7]: 15.77%
- Population apoptotic cell (%) [7]: 63.41%
- Population cell that influence microtubule strucutre (%) [7]: 38.69%
- Population with increased mitochondrial mass (%) [7]: 77.89%
- Population with membrane disruption (%) [7]: 0.00%
- Cell count normalized to cells treated with DMSO control [8]: 0.8682
- Cell count per well [8]: 392
- Population Fragmented Nuclei (%) [8]: 11.70%
- Population Healthy Nuclei (%) [8]: 77.99%
- Population Pyknosed Nuclei (%) [8]: 10.31%
- Population apoptotic cell (%) [8]: 56.76%
- Population cell that influence microtubule strucutre (%) [8]: 28.21%
- Population with increased mitochondrial mass (%) [8]: 65.71%
- Population with membrane disruption (%) [8]: 0.00%
- Cell count normalized to cells treated with DMSO control [9]: 0.7573
- Cell count per well [9]: 517
- Population Fragmented Nuclei (%) [9]: 16.37%
- Population Healthy Nuclei (%) [9]: 77.05%
- Population Pyknosed Nuclei (%) [9]: 6.59%
- Population apoptotic cell (%) [9]: 39.39%
- Population cell that influence microtubule strucutre (%) [9]: 19.17%
- Population with increased mitochondrial mass (%) [9]: 40.93%
- Population with membrane disruption (%) [9]: 0.00%
- toxicity (10 μM, within the 48 h time frame, b30 names HEK293T (apoptotic cell population)): slight increase in toxicity
- impact on tubulin, mitochondrial mass, and cellular permeability in healthy cells (HEK293T, 1 μM (Figure 6)): comparable to that of the 0.1% DMSO control
- Cell count normalized to cells treated with DMSO control [10]: 1.066
- Cell count per well [10]: 318
- Population Fragmented Nuclei (%) [10]: 7.28%
- Population Healthy Nuclei (%) [10]: 48.28%
- Population Pyknosed Nuclei (%) [10]: 44.44%
- Population apoptotic cell (%) [10]: 40.52%
- Population cell that influence microtubule strucutre (%) [10]: 21.43%
- Population with increased mitochondrial mass (%) [10]: 63.49%
- Population with membrane disruption (%) [10]: 0.00%
- Cell count normalized to cells treated with DMSO control [11]: 1.032
- Cell count per well [11]: 470
- Population Fragmented Nuclei (%) [11]: 6.59%
- Population Healthy Nuclei (%) [11]: 81.41%
- Population Pyknosed Nuclei (%) [11]: 12.00%
- Population apoptotic cell (%) [11]: 25.49%
- Population cell that influence microtubule strucutre (%) [11]: 28.03%
- Population with increased mitochondrial mass (%) [11]: 37.86%
- Population with membrane disruption (%) [11]: 0.58%
- Cell count normalized to cells treated with DMSO control [12]: 1.043
- Cell count per well [12]: 633
- Population Fragmented Nuclei (%) [12]: 13.01%
- Population Healthy Nuclei (%) [12]: 77.59%
- Population Pyknosed Nuclei (%) [12]: 9.39%
- Population apoptotic cell (%) [12]: 29.82%
- Population cell that influence microtubule strucutre (%) [12]: 18.05%
- Population with increased mitochondrial mass (%) [12]: 21.02%
- Population with membrane disruption (%) [12]: 0.85%
- Cell count normalized to cells treated with DMSO control [13]: 0.8779
- Cell count per well [13]: 262
- Population Fragmented Nuclei (%) [13]: 12.05%
- Population Healthy Nuclei (%) [13]: 39.73%
- Population Pyknosed Nuclei (%) [13]: 48.21%
- Population apoptotic cell (%) [13]: 50.00%
- Population cell that influence microtubule strucutre (%) [13]: 14.61%
- Population with increased mitochondrial mass (%) [13]: 59.55%
- Population with membrane disruption (%) [13]: 0.00%
- Cell count normalized to cells treated with DMSO control [14]: 0.8806
- Cell count per well [14]: 401
- Population Fragmented Nuclei (%) [14]: 9.68%
- Population Healthy Nuclei (%) [14]: 77.15%
- Population Pyknosed Nuclei (%) [14]: 13.17%
- Population apoptotic cell (%) [14]: 46.94%
- Population cell that influence microtubule strucutre (%) [14]: 42.51%
- Population with increased mitochondrial mass (%) [14]: 57.84%
- Population with membrane disruption (%) [14]: 0.00%
- Cell count normalized to cells treated with DMSO control [15]: 0.8057
- Cell count per well [15]: 489
- Population Fragmented Nuclei (%) [15]: 10.83%
- Population Healthy Nuclei (%) [15]: 78.34%
- Population Pyknosed Nuclei (%) [15]: 10.83%
- Population apoptotic cell (%) [15]: 43.14%
- Population cell that influence microtubule strucutre (%) [15]: 28.46%
- Population with increased mitochondrial mass (%) [15]: 48.51%
- Population with membrane disruption (%) [15]: 0.27%
- Cell count normalized to cells treated with DMSO control [16]: 0.8197
- Cell count per well [16]: 829
- Population Fragmented Nuclei (%) [16]: 23.14%
- Population Healthy Nuclei (%) [16]: 71.74%
- Population Pyknosed Nuclei (%) [16]: 5.12%
- Population apoptotic cell (%) [16]: 33.33%
- Population cell that influence microtubule strucutre (%) [16]: 14.26%
- Population with increased mitochondrial mass (%) [16]: 26.32%
- Population with membrane disruption (%) [16]: 0.51%
